Data as given in patent publication US9844546B2, “Antibody against human HIF hydroxylase” (OXFORD UNIVERSITY INNOVATION LIMITED, priority 2001, dated 2017).
Entries after “also recorded” stand apart in the source; their conditions may differ.

System: Hep3B and U2OS cells
Assay: Immunoblot of HIF-1α and CA-9 in cells exposed to inhibitor
Type: cell-based, human
Settings: 0.1 or 1 mM, 6 hours; for HIF-1α level (immunoblot): normoxic culture
Source text: We went on to test a series of 2-oxoglutarate analogues which act as competitive inhibitors of this class of enzyme (29) for ability to inhibit HIF-PH as assessed by the ability of cell extracts to modify either HIF polypeptide (19:WT) or a HIF fusion protein (Gal/HIF-1α549-582/VP16) so as to promote pVHL capture. Concordant results were obtained with both sources of HIF sequence. In one such experiment the effect of N-oxalylglycine on pVHL capture by a biotinylated HIF polypeptides as substrate was monitored. The WT:19 and 19:Pro564Hyp polypeptides described above were used as substrates. […] Inhibition by N-Oxalylglycine was overcome by addition of 5 mM 2-oxoglutarate. As previously, 19:Pro564Hyp captured pVHL efficiently without modification by cell extract, and this was not influenced by exposure to N-oxalylglycine. […] We also used a 2-oxoglutarate dependent dioxygenase, phytanoyl-CoA α-hydroxylase (30), together with a readily available unnatural substrate (isovaleryl CoA) (31) to deplete the cell extract of 2-oxoglutarate produced by the citric acid cycle; as predicted, this prevented the subsequent modification of HIF polypeptide. The effect of dimethyl-oxalyglycine on HIF-1α expression was also studied. HIF-1α immunoblot analysis of extracts of Hep3B and U2OS cells exposed to dimethyl-oxalylgylcine (0, 0.1 or 1.0 mM) for 6 hours was carried out.
Hep3B and U2OS cells were exposed to either 0.1 mM or 1 mM dimethyloxalylglycine for 6 hours, harvested and assayed by immunoblotting (Western blotting) for changes in the level of HIF-1α and CA-9 expression. Controls, where no inhibitor was added, were also performed. […] Upregulation of HIF-1α increased with increasing concentration of dimethyloxalylglycine, whilst the level of CA-9 expression was similar after exposure to both 0.1 and 1 mM of dimethyloxalylglycine.

## COC(=O)CNC(=O)C(=O)OC [dimethyloxalylglycine]
  CA-9 expression (immunoblot): Clear upregulation
  HIF-1α level (immunoblot): increase intracellular levels of HIF-1; also recorded: Clear upregulation
Listed as dimethyl-oxalylgylcine
  HIF-1α level (immunoblot): strongly induced
